Read-outs that look alike come from different tables or passages of the source.
Experiments:
α-glucosidase = details: read-out: IC50 against α-glucosidase, cited from earlier work
yeast α-glucosidase = yeast α-glucosidase (Saccharomyces cerevisiae, UniProt P53341); assay: biochemical; assay type: biochemical; details: for α-glucosidase inhibitory activity, in words: SAR discussion; for IC50: read-out: IC50 (μM), in vitro α-glucosidase inhibitory activity
From the text: On the other hand, there are phenyl, 4-methylphenyl, and or 4-methoxyphenyl groups in the benzenesulfonamide moiety.

α-amylase = biological target: T1, α-amylase (Homo sapiens, UniProt P04746); assay: In vitro α-amylase inhibition assay; assay type: biochemical; details: at 300 μM
T1 sequence (P04746 16-511): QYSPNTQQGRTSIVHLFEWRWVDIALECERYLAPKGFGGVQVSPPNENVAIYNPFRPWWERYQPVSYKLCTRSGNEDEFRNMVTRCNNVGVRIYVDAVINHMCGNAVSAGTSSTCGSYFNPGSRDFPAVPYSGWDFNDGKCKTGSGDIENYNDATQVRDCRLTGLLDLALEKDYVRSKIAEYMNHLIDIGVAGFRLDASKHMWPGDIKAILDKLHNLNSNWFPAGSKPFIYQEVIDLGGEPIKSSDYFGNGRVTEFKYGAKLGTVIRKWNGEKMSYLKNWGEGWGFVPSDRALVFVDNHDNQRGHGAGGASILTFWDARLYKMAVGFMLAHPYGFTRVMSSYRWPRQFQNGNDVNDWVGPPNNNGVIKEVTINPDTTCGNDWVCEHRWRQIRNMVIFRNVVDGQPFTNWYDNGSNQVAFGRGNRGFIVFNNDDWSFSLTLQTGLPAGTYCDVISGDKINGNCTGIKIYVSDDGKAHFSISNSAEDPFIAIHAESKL

Chain of yeast α-glucosidase (P53341 whole entry): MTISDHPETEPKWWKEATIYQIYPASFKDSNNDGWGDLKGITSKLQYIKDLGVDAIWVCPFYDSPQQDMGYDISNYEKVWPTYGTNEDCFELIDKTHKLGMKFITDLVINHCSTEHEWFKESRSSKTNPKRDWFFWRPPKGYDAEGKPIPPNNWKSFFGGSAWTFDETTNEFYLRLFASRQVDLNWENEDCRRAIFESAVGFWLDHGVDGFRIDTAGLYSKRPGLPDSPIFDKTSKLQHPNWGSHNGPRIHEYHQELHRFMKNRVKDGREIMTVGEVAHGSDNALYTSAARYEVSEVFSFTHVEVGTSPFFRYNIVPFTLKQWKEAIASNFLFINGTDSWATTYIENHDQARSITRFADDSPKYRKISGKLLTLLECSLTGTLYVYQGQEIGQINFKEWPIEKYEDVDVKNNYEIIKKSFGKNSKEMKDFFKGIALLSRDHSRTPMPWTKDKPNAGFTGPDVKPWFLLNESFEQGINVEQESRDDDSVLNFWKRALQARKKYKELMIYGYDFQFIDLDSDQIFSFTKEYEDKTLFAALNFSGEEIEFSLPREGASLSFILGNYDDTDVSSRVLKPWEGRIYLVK

SMILES	α-glucosidase inhibitory activity, in words (yeast α-glucosidase)	melting point [°C]	IC50 (yeast α-glucosidase) [µM]	also measured
O=C1c2ccccc2C(=O)N1CCCOc1ccc(Cl)c(Cl)c1 [A]	–	–	–	IC50 (α-glucosidase; Fig. 2, phthalimide derivative A study): 7.55 µM
Cc1ccc(S(=O)(=O)Nc2ccc3c(c2)C(=O)N(CCOc2ccc(O)cc2)C3=O)cc1 [B]	–	–	–	IC50 (α-glucosidase; Fig. 2, phthalimide-benzenesulfonamid B study): 25.5 µM
O=C1c2ccccc2C(=O)N1CCC(=NS(=O)(=O)c1ccccc1)N1CCCCC1 [Compound 4a, N-(3-(1,3-Dioxoisoindolin-2-yl)-1-(piperidin-1-yl)propylidene)benzenesulfonamide]	inactive	158 to 160	–	–
Cc1ccc(S(=O)(=O)N=C(CCN2C(=O)c3ccccc3C2=O)N2CCCCC2)cc1 [Compound 4b, N-(3-(1,3-Dioxoisoindolin-2-yl)-1-(piperidin-1-yl)propylidene)-4-methylbenzenesulfonamide]	high inhibitory activity	198 to 200	127.24 ± 0.1	–
COc1ccc(S(=O)(=O)N=C(CCN2C(=O)c3ccccc3C2=O)N2CCCCC2)cc1 [Compound 4c, N-(3-(1,3-dioxoisoindolin-2-yl)-1-(piperidin-1-yl)propylidene)-4-methoxybenzenesulfonamide]	good anti-α-glucosidase activity	146 to 148	200.29 ± 0.1	–
O=C1c2ccccc2C(=O)N1CCC(=NS(=O)(=O)c1ccccc1)N1CCOCC1 [Compound 4d, N-(3-(1,3-dioxoisoindolin-2-yl)-1-morpholinopropylidene)benzenesulfonamide]	inactive	168 to 170	–	–
Cc1ccc(S(=O)(=O)N=C(CCN2C(=O)c3ccccc3C2=O)N2CCOCC2)cc1 [Compound 4e, N-(3-(1,3-Dioxoisoindolin-2-yl)-1-morpholinopropylidene)-4-methylbenzenesulfonamide]	high inhibitory activity	204 to 206	117 ± 0.14	inhibition effect against α-amylase (α-amylase): no inhibition effect
COc1ccc(S(=O)(=O)N=C(CCN2C(=O)c3ccccc3C2=O)N2CCOCC2)cc1 [Compound 4f, N-(3-(1,3-Dioxoisoindolin-2-yl)-1-morpholinopropylidene)-4-methoxybenzenesulfonamide]	–	172 to 174	–	–
O=C1c2ccccc2C(=O)N1CCC(=NS(=O)(=O)c1ccccc1)N(c1ccccc1)c1ccccc1 [Compound 4g, 3-(1,3-Dioxoisoindolin-2-yl)-N,N-diphenyl-N'-(phenylsulfonyl)propanimidamide]	moderate inhibitory activity	202 to 204	478 ± 0.07	–
Cc1ccc(S(=O)(=O)N=C(CCN2C(=O)c3ccccc3C2=O)N(c2ccccc2)c2ccccc2)cc1 [Compound 4h, 3-(1–3-Dioxoisoindolin-2-yl)-N,N-diphenyl-N’-tosylpropanimidamide]	moderate α-glucosidase inhibitors	202 to 204	497 ± 0.25	–
O=C1c2ccccc2C(=O)N1CCC(=NS(=O)(=O)c1ccccc1)N1CCC(Cc2ccccc2)CC1 [Compound 4i, N-(1-(4-benzylpiperidin-1-yl)-3-(1,3-dioxoisoindolin-2-yl)propylidene)benzenesulfonamide]	high inhibitory activity	–	84.3 ± 0.4	–
COc1ccc(S(=O)(=O)N=C(CCN2C(=O)c3ccccc3C2=O)N2CCC(Cc3ccccc3)CC2)cc1 [Compound 4k]	inactive	–	–	–
O=C1c2ccccc2C(=O)N1CCC(=NS(=O)(=O)c1ccccc1)N1CCN(c2ccccc2)CC1 [Compound 4l, N-(3-(1,3-dioxoisoindolin-2-yl)-1-(4-phenylpiperazin-1-yl)propylidene)benzenesulfonamide]	–	160 to 164	–	–
NS(=O)(=O)c1ccc(N/N=C/c2coc3ccccc3c2=O)cc1 [D]	–	–	–	IC50 (α-glucosidase; Fig. 2, chromone-benzenesulfonamid D study): 20.1 µM
O=C(N/N=C/c1ccc(OCCCN2C(=O)c3ccccc3C2=O)cc1)c1cc2ccccc2oc1=O [E]	–	–	–	IC50 (α-glucosidase; Fig. 2, phthalimide-coumarin E study): 85.2 µM

From paper PMC9217978, “Design, synthesis, in vitro α-glucosidase inhibition, docking, and molecular dynamics of new phthalimide-benzenesulfonamide hybrids for targeting type 2 diabetes” (Scientific Reports, 2022)
